Measured values from patent US11518760B2 (Liverpool School of Tropical Medicine, priority 2017, dated 2022).

Each compound was assayed on C6/36 Aedes albopictus cell line infected with Wolbachia pipientis (Wolbachia strain wAlbB) (assay: In vitro insect cell line assay (anti-Wolbachia screen, SYTO 11 high content imaging)). Details: 168 h; C6/36 Aedes albopictus cells infected with Wolbachia pipientis wAlbB, 7 days incubation, SYTO 11 imaging; read-out: In vitro anti-Wolbachia activity.
Type: cell-based
How it was run: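 SYTO 11 staining (15 min), high-content imaging and texture analysis were the read-out on day 7. Before that, C6/36 mosquito cells carrying Wolbachia strain wAlbB were incubated at 26 °C with test compound at 5 μM final, alongside DMSO-only control wells.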
`FC(F)(F)c1ccccc1CNc1nc(N2CCOCC2)nc2ccsc12` [Example 94, 2-morpholino-N-(2-(trifluoromethyl)benzyl)thieno[3,2-d]pyrimidin-4-amine] showed an EC50 of 1000 to 100000 nM.
`CC(C)Nc1nc(NCc2ccc(C#N)cc2)c2ccccc2n1` [Example 120, N^4-(4-cyanobenzyl)-N^2-isopropylquinazoline-2,4-diamine] showed an EC50 of 100 to 1000 nM.
Compound `Cc1nc(N(C)C(C)c2ccccc2C(F)(F)F)c2sc(C=O)cc2n1` (centres unmarked) [Example 77] has an EC50 of 100 to 1000 nM.
`FC(F)(F)c1ncccc1CNc1nc(N2CC(C(F)(F)F)C2)nc2ncccc12` [Example 202, 2-(3-(trifluoromethyl)azetidin-1-yl)-N-((2-(trifluoromethyl)pyridin-3-yl)methyl)pyrido[2,3-d]pyrimidin-4-amine] was tested, and the EC50 was 1 to 10 nM.
`CC1COC[C@@H](C)N1c1nc(NCc2ccccc2C(F)(F)F)c2cccnc2n1` (stereo partly drawn) [Example 277, 2-((3R)-3,5-dimethylmorpholino)-N-(2-(trifluoromethyl)benzyl)pyrido[2,3-d]pyrimidin-4-amine] showed an EC50 of 10 to 100 nM.
`O=C(Nc1ncnc2ccsc12)c1ccccc1Cl` [Example 40, 2-chloro-N-(thieno[3,2-d]pyrimidin-4-yl)benzamide] was tested, and the EC50 was 1000 to 100000 nM.
Work on `CC1(C)COCCN1c1nc(NCc2cccnc2C(F)(F)F)c2cccnc2n1` [Example 240, 2-(3,3-dimethylmorpholino)-N-((2-(trifluoromethyl)pyridin-3-yl)methyl)pyrido[2,3-d]pyrimidin-4-amine] yielded an EC50 of 0.01 to 1 nM.
Work on `FC(F)(F)c1ncccc1CNc1nc(N2CCC(C(F)(F)F)CC2)nc2ncccc12` [Example 235, 2-(4-(trifluoromethyl)piperidin-1-yl)-N-((2-(trifluoromethyl)pyridin-3-yl)methyl)pyrido[2,3-d]pyrimidin-4-amine] yielded an EC50 of 0.01 to 1 nM.
For `FC(F)(F)c1ccccc1CNc1nc(Cl)nc2ccccc12` [Example 57, 2-chloro-N-(2-(trifluoromethyl)benzyl)quinazolin-4-amine], the EC50 was 10 to 100 nM.
With `CC1CN(c2nc(NCc3ccccc3C(F)(F)F)c3cccnc3n2)CCO1` (centres unmarked) [Example 248, 2-(2-methylmorpholino)-N-(2-(trifluoromethyl)benzyl)pyrido[2,3-d]pyrimidin-4-amine] the EC50 was 0.01 to 1 nM.
`COc1ccccc1CNc1nc(NC(C)C)nc2ccsc12` [Example 132, N^2-isopropyl-N^4-(2-methoxybenzyl)thieno[3,2-d]pyrimidine-2,4-diamine] gave an EC50 of 1000 to 100000 nM.
`N#Cc1ccccc1CNc1nc(Cl)nc2ccsc12` [Example 104, 2-(((2-chlorothieno[3,2-d]pyrimidin-4-yl)amino)methyl)benzonitrile] gave an EC50 of 100 to 1000 nM.
`FC(F)(F)OC1CCN(c2nc(NCc3cccnc3C(F)(F)F)c3cccnc3n2)CC1` [Example 273, 2-(4-(trifluoromethoxy)piperidin-1-yl)-N-((2-(trifluoromethyl)pyridin-3-yl)methyl)pyrido[2,3-d]pyrimidin-4-amine] was tested, and the EC50 was < 0.01 nM.
In the case of `C[C@H]1COCCN1c1nc(NCc2ccccc2C(F)(F)F)c2cccnc2n1` [Example 208, (S)-2-(3-methylmorpholino)-N-(2-(trifluoromethyl)benzyl)pyrido[2,3-d]pyrimidin-4-amine], the EC50 is reported as < 0.01 nM.
With `Cc1nc(N(C)C(C)c2ccccc2C(F)(F)F)c2sccc2n1` (centres unmarked) [Example 66, N,2-dimethyl-N-(1-(2-(trifluoromethyl)phenyl)ethyl)thieno[3,2-d]pyrimidin-4-amine] the EC50 was 1 to 10 nM.
Work on `FC1(F)CN(c2nc(NCc3cccnc3C(F)(F)F)c3cccnc3n2)CC(F)(F)O1` [Example 295, 2-(2,2,6,6-tetrafluoromorpholino)-N-((2-(trifluoromethyl)pyridin-3-yl)methyl)pyrido[2,3-d]pyrimidin-4-amine] yielded an EC50 of 10 to 100 nM.
In the case of `CC(C)N(C)c1nc(N2CCCCC2c2ccccc2C(F)(F)F)c2cccnc2n1` (centres unmarked) [Example 186, N-isopropyl-N-methyl-4-(2-(2-(trifluoromethyl)phenyl)piperidin-1-yl)pyrido[2,3-d]pyrimidin-2-amine], the EC50 is reported as 1000 to 100000 nM.
With `CC(C)Nc1nc(NCc2ccccc2S(C)(=O)=O)c2sccc2n1` [Example 117, N^2-isopropyl-N^4-(2-(methylsuifonyl)benzyl)thieno[3,2-d]pyrimidine-2,4-diamine] the EC50 was 100 to 1000 nM.
`CC1COCCN1c1nc(NCc2cccnc2C(F)(F)F)c2nccnc2n1` (centres unmarked) [Example 309, 2-(3-methylmorpholino)-N-((2-(trifluoromethyl)pyridin-3-yl)methyl)pteridin-4-amine] gave an EC50 of 100 to 1000 nM.
Compound `O=C(Nc1nc(NCc2cccnc2C(F)(F)F)c2cccnc2n1)Nc1ccccc1F` [Example 206, 1-(2-fluorophenyl)-3-(4-(((2-(trifluoromethyl)pyridin-3-yl)methyl)amino)pyrido[2,3-d]pyrimidin-2-yl)urea] has an EC50 of 100 to 1000 nM.
For `FC(F)(F)c1ccccc1CNc1nc(NCCN2CCOCC2)nc2ccsc12` [Example 90, N^2-(2-morpholinoethyl)-N^4-(2-(trifluoromethyl)benzyl)thieno[3,2-d]pyrimidine-2,4-diamine], the EC50 was 1000 to 100000 nM.
`CC1COCCN1c1nc(N2CCC2c2cccnc2C(F)(F)F)c2cccnc2n1` (centres unmarked) [Example 219, 3-methyl-4-(4-(2-(2-(trifluoromethyl)pyridin-3-yl)azetidin-1-yl)pyrido[2,3-d]pyrimidin-2-yl)morpholine] was tested, and the EC50 was 1 to 10 nM.
Work on `FC(F)(F)c1ccccc1CNc1nc(NC2COC2)nc2ncccc12` [Example 144, N^2-(oxetan-3-yl)-N^4-(2-(trifluoromethyl)benzyl)pyrido[2,3-d]pyrimidine-2,4-diamine] yielded an EC50 of 10 to 100 nM.
Compound `CC(C)Nc1nc(NCc2ccc(C#N)cc2)c2ncccc2n1` [Example 121, N^4-(4-cyanobenzyl)-N^2-isopropylpyrido[3,2-d]pyrimidine-2,4-diamine] has an EC50 of 1000 to 100000 nM.
Compound `FC(F)(F)c1ccccc1CNc1nc(NC2CC2)nc2ccsc12` [Example 43, N^2-cyclopropyl-N^4-(2-(trifluoromethyl)benzyl)thieno[3,2-d]pyrimidine-2,4-diamine] has an EC50 of 100 to 1000 nM.
Work on `FC(F)(F)c1ccccc1CNc1nc(N2CCOC3CC32)nc2ncccc12` (centres unmarked) [Example 301, 2-(2-oxa-5-azabicyclo[4.1.0]heptan-5-yl)-N-(2-(trifluoromethyl)benzyl)pyrido[2,3-d)pyrimidin-4-amine] yielded an EC50 of 0.01 to 1 nM.
In the case of `FC(F)(F)c1ncccc1CNc1nc(N2CCOC(C3CC3)C2)nc2ncccc12` (centres unmarked) [Example 278, 2-(2-cyclopropylmorpholino)-N-((2-(trifluoromethyl)pyridin-3-yl)methyl)pyrido[2,3-d]pyrimidin-4-amine], the EC50 is reported as 0.01 to 1 nM.
`FC(F)(F)c1ccccc1CNc1nc(N2CCCC2)nc2ccsc12` [Example 93, 2-(pyrrolidin-1-yl)-N-(2-(trifluoromethyl)benzyl)thieno[3,2-d]pyrimidin-4-amine] gave an EC50 of 100 to 1000 nM.
With `FC(F)(F)c1ncccc1CNc1nc(N2CCC(Cl)CC2)nc2ncccc12` [Example 199, 2-(4-chloropiperidin-1-yl)-N-((2-(trifluoromethyl)pyridin-3-yl)methyl)pyrido[2,3-d]pyrimidin-4-amine] the EC50 was 1 to 10 nM.
`CC(C)Nc1nc(NCc2cccnc2C(F)(F)F)c2ccccc2n1` [Example 151, N^2-isopropyl-N^4-((2-(trifluoromethyl)pyridin-3-yl)methyl)quinazoline-2,4-diamine] showed an EC50 of 100 to 1000 nM.
Work on `CC(C)Nc1nc(NCc2cccnc2C(F)(F)F)c2ncccc2n1` [Example 152, N^2-isopropyl-N^4-((2-(trifluoromethyl)pyridin-3-yl)methyl)pyrido[3,2-d]pyrimidine-2,4-diamine] yielded an EC50 of 100 to 1000 nM.
Compound `CC(C)N(C)c1nc(NCc2cccnc2C(F)(F)F)c2ccccc2n1` [Example 176, N^2-isopropyl-N^2-methyl-N^4-((2-(trifluoromethyl)pyridin-3-yl)methyl)quinazoline-2,4-diamine] has an EC50 of 100 to 1000 nM.
`N#CC1CN(c2nc(NCc3cccnc3C(F)(F)F)c3cccnc3n2)C1` [Example 237, 1-(4-(((2-(trifluoromethyl)pyridin-3-yl)methyl)amino)pyrido[2,3-d]pyrimidin-2-yl)azetidine-3-carbonitrile] was tested, and the EC50 was 100 to 1000 nM.
In the case of `FC(F)(F)c1ncccc1CNc1nc(NC2CNC2)nc2ncccc12` [Example 147, N^2-(azetidin-3-yl)-N^4-((2-(trifluoromethyl)pyridin-3-yl)methyl)pyrido[2,3-d]pyrimidine-2,4-diamine], the EC50 is reported as 1000 to 100000 nM.
`COc1cccc(CNc2ncnc3ccsc23)c1C(F)(F)F` [Example 51, N-(3-methoxy-2-(trifluoromethyl)benzyl)thieno[3,2-d]pyrimidin-4-amine] showed an EC50 of 10 to 100 nM.
`CC1CCCN(c2nc(NCc3cccnc3C(F)(F)F)c3cccnc3n2)C1` (centres unmarked) [Example 311, 2-(3-methylpiperidin-1-yl)-N-((2-(trifluoromethyl)pyridin-3-yl)methyl)pyrido[2,3-d]pyrimidin-4-amine] gave an EC50 of 0.01 to 1 nM.
For `N#CC1CN(c2nc(NCc3cccnc3C(F)(F)F)c3cccnc3n2)CCO1` (centres unmarked) [Example 257, 4-(4-(((2-(trifluoromethyl)pyridin-3-yl)methyl)amino)pyrido[2,3-d]pyrimidin-2-yl)morpholine-2-carbonitrile], the EC50 was 10 to 100 nM.
`CN(c1nc(NCc2cccnc2C(F)(F)F)c2cccnc2n1)C1CC1` [Example 175, N^2-cyclopropyl-N^2-methyl-N^4-((2-(trifluoromethyl)pyridin-3-yl)methyl)pyrido[2,3-d]pyrimidine-2,4-diamine] gave an EC50 of 1 to 10 nM.
`COc1cnc2nc(N3CCOCC3C)nc(NCc3cccnc3C(F)(F)F)c2c1` (centres unmarked) [Example 304] gave an EC50 of 1000 to 100000 nM.
`CS(=O)(=O)c1ccccc1CNc1ncnc2ccsc12` [Example 97, N-(2-(methylsulfonyl)benzyl)thieno[3,2-d]pyrimidin-4-amine] was tested, and the EC50 was 100 to 1000 nM.
Compound `COc1cc2c(NCc3cccnc3C(F)(F)F)nc(N3CCOCC3C)nc2nc1OC` (centres unmarked) [Example 308, 6,7-dimethoxy-2-(3-methylmorphoIino)-N-((2-(trifluoromethyl)pyridin-3-yl)methyl)pyrido[2,3-d]pyrimidin-4-amine] has an EC50 of 1000 to 100000 nM.
